According to ChEMBL document CHEMBL3352449, “Synthesis and biological evaluation of 1α,25-dihydroxyvitamin D3 analogues with aromatic side chains attached at C-17” (Eur J Med Chem, 2014):
Calls of active or inactive are those of the source. The calls are words filed in the database; no cut-off is given here.

How the values were obtained:
[1] = target: T1, Vitamin D3 receptor (Bos taurus) (UniProt Q28037); test: Displacement of [3H]-1alpha,25-dihydroxyvitamin D3 from bovine thymus VDR measured after overnight incubation relative to 1alpha,25-dihydroxyvitamin D3
T1 sequence (whole entry): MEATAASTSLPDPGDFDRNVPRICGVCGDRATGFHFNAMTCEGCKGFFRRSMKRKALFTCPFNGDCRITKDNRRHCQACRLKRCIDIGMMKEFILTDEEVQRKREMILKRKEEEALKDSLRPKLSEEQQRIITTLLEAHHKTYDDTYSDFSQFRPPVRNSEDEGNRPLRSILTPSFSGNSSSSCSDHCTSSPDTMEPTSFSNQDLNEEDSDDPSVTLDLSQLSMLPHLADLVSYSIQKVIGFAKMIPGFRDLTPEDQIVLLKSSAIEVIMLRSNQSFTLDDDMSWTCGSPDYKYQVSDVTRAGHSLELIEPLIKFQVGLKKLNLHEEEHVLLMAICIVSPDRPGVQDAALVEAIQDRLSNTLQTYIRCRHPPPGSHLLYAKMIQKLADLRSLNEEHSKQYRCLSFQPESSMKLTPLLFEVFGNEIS

HL-60 = test: Induction of cell differentiation in human HL60 cells assessed as maturing morphological changes at 30 to 1000 nM after 48 hrs by Wright's-Giemsa staining-based forty microscopic view assay; format: functional
MCF7 = test: Antiproliferative activity against human MCF7 cells assessed as inhibition of proliferation after 72 hrs by MTT assay; format: functional, cell-based; details: MCF7, 72 h

SMILES	Ratio [1]	Activity (HL-60)	IC50 (MCF7)
C=C1CC[C@H](O)C/C1=C/C=C1\CCC[C@]2(C)[C@@H]([C@H](C)CCCC(C)(C)O)CC[C@@H]12	0.01	–	–
C=C1/C(=C\C=C2/CCC[C@]3(C)C(c4ccccc4CCCC(C)(C)O)=CC[C@@H]23)C[C@@H](O)C[C@@H]1O	0.01	Active	7.08 µM
C=C1/C(=C\C=C2/CCC[C@]3(C)C(c4cccc(CCCC(C)(C)O)c4)=CC[C@@H]23)C[C@@H](O)C[C@@H]1O	0.015	Active	7.56 µM
C=C1/C(=C\C=C2/CCC[C@]3(C)[C@@H]([C@H](C)CCCC(C)(C)O)CC[C@@H]23)C[C@@H](O)C[C@@H]1O	–	Active	–
